Experiments:
Test in all cases: relative viability (nuclei count vs DMSO), 5 days (fraction); higher = more cells survive
NCI-H1734 = tested on: NCI-H1734
Method in brief: (§1)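 Five library-drug doses in √10 steps were combined with a fixed anchor-drug dose, or a single drug was given alone, by pin tool to lung cancer cell lines in 1536-well plates the day after seeding. Nuclei were stained and counted after 5 days. Relative viability is the nuclei count in treated wells over that in vehicle wells, taken as the median of duplicate plates.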

NCI-H2085 = tested on: NCI-H2085
Method in brief: as §1

COR-L23 = tested on: COR-L23
Method in brief: as §1

NCI-H1437 = tested on: NCI-H1437
Method in brief: as §1

NCI-H1651 = tested on: NCI-H1651
Method in brief: as §1

SK-LU-1 = tested on: SK-LU-1
Method in brief: as §1

CAL-12T = tested on: CAL-12T
Method in brief: as §1

NCI-H358 = tested on: NCI-H358
Method in brief: as §1

LOU-NH91 = tested on: LOU-NH91
Method in brief: as §1

NCI-H1650 = tested on: NCI-H1650
Method in brief: as §1

LU99A = tested on: LU99A
Method in brief: as §1

NCI-H1975 = tested on: NCI-H1975
Method in brief: as §1

NCI-H1355 = tested on: NCI-H1355
Method in brief: as §1

NCI-H2342 = tested on: NCI-H2342
Method in brief: as §1

BEN = tested on: BEN
Method in brief: as §1

NCI-H1793 = tested on: NCI-H1793
Method in brief: as §1

NCI-H460 = tested on: NCI-H460
Method in brief: as §1

NCI-H838 = tested on: NCI-H838
Method in brief: as §1

HCC-366 = tested on: HCC-366
Method in brief: as §1

NCI-H441 = tested on: NCI-H441
Method in brief: as §1

NCI-H2023 = tested on: NCI-H2023
Method in brief: as §1

Q: How did the relative viability (NCI-H1734; first compound 0.0002 µM) turn out when `CC(=O)O[C@@]12CO[C@@H]1C[C@H](O)[C@@]1(C)C(=O)[C@H](O)C3=C(C)[C@@H](OC(=O)[C@H](O)[C@@H](NC(=O)OC(C)(C)C)c4ccccc4)C[C@@](O)([C@@H](OC(=O)c4ccccc4)[C@H]21)C3(C)C` [Docetaxel] + Cc1cc(Nc2cc(N3CCN(C)CC3)nc(Sc3ccc(NC(=O)C4CC4)cc3)n2)n[nH]1 [Tozasertib] (partner 0.1 µM) was run?
A: 0.308

Q: And the relative viability (NCI-H1734; first compound 0.000632 µM)?
A: 0.345

Q: And the relative viability (NCI-H1734; first compound 0.002 µM)?
A: 0.302

Q: And the relative viability (NCI-H1734; first compound 0.006325 µM)?
A: 0.341

Q: And the relative viability (NCI-H1734; first compound 0.02 µM)?
A: 0.292

Q: What about the relative viability (NCI-H2085; first compound 0.0002 µM) of the same compound?
A: 0.743

Q: And the relative viability (NCI-H2085; first compound 0.000632 µM)?
A: 0.779

Q: And the relative viability (NCI-H2085; first compound 0.002 µM)?
A: 0.664

Q: And the relative viability (NCI-H2085; first compound 0.006325 µM)?
A: 0.481

Q: What about the relative viability (NCI-H2085; first compound 0.02 µM) of the same compound?
A: 0.322

Q: What about the relative viability (COR-L23; first compound 0.0002 µM) of the same compound?
A: 0.199

Q: What about the relative viability (COR-L23; first compound 0.000632 µM) of the same compound?
A: 0.21

Q: What about the relative viability (COR-L23; first compound 0.002 µM) of the same compound?
A: 0.141

Q: And the relative viability (COR-L23; first compound 0.006325 µM)?
A: 0.153

Q: And the relative viability (COR-L23; first compound 0.02 µM)?
A: 0.133

Q: What about the relative viability (NCI-H1437; first compound 0.0002 µM) of the same compound?
A: 0.354

Q: What about the relative viability (NCI-H1437; first compound 0.000632 µM) of the same compound?
A: 0.374

Q: What about the relative viability (NCI-H1437; first compound 0.002 µM) of the same compound?
A: 0.241

Q: What about the relative viability (NCI-H1437; first compound 0.006325 µM) of the same compound?
A: 0.273

Q: And the relative viability (NCI-H1437; first compound 0.02 µM)?
A: 0.201

Q: And the relative viability (NCI-H1651; first compound 0.0002 µM)?
A: 0.716

Q: What about the relative viability (NCI-H1651; first compound 0.000632 µM) of the same compound?
A: 0.717

Q: What about the relative viability (NCI-H1651; first compound 0.002 µM) of the same compound?
A: 0.187

Q: And the relative viability (NCI-H1651; first compound 0.006325 µM)?
A: 0.189

Q: And the relative viability (SK-LU-1; first compound 0.0002 µM)?
A: 0.297

Q: And the relative viability (SK-LU-1; first compound 0.000632 µM)?
A: 0.302

Q: And the relative viability (SK-LU-1; first compound 0.002 µM)?
A: 0.308

Q: What about the relative viability (SK-LU-1; first compound 0.006325 µM) of the same compound?
A: 0.252

Q: What about the relative viability (SK-LU-1; first compound 0.02 µM) of the same compound?
A: 0.217

Q: What about the relative viability (CAL-12T; first compound 0.0002 µM) of the same compound?
A: 0.319

Q: And the relative viability (CAL-12T; first compound 0.000632 µM)?
A: 0.32

Q: What about the relative viability (CAL-12T; first compound 0.002 µM) of the same compound?
A: 0.227

Q: What about the relative viability (CAL-12T; first compound 0.006325 µM) of the same compound?
A: 0.251

Q: And the relative viability (CAL-12T; first compound 0.02 µM)?
A: 0.142

Q: And the relative viability (NCI-H358; first compound 0.0002 µM)?
A: 0.114

Q: What about the relative viability (NCI-H358; first compound 0.000632 µM) of the same compound?
A: 0.112

Q: And the relative viability (NCI-H358; first compound 0.006325 µM)?
A: 0.137

Q: And the relative viability (NCI-H358; first compound 0.02 µM)?
A: 0.117

Q: What about the relative viability (LOU-NH91; first compound 0.0002 µM) of the same compound?
A: 0.657

Q: And the relative viability (LOU-NH91; first compound 0.000632 µM)?
A: 0.574

Q: What about the relative viability (LOU-NH91; first compound 0.002 µM) of the same compound?
A: 0.39

Q: And the relative viability (LOU-NH91; first compound 0.006325 µM)?
A: 0.383

Q: What about the relative viability (LOU-NH91; first compound 0.02 µM) of the same compound?
A: 0.247

Q: And the relative viability (NCI-H1650; first compound 0.0002 µM)?
A: 0.386

Q: What about the relative viability (NCI-H1650; first compound 0.000632 µM) of the same compound?
A: 0.328

Q: And the relative viability (NCI-H1650; first compound 0.006325 µM)?
A: 0.306

Q: And the relative viability (NCI-H1650; first compound 0.02 µM)?
A: 0.168

Q: What about the relative viability (LU99A; first compound 0.0002 µM) of the same compound?
A: 0.262

Q: And the relative viability (LU99A; first compound 0.000632 µM)?
A: 0.289

Q: What about the relative viability (LU99A; first compound 0.002 µM) of the same compound?
A: 0.236

Q: What about the relative viability (LU99A; first compound 0.006325 µM) of the same compound?
A: 0.307

Q: What about the relative viability (LU99A; first compound 0.02 µM) of the same compound?
A: 0.211

Q: What about the relative viability (NCI-H1975; first compound 0.0002 µM) of the same compound?
A: 0.705

Q: And the relative viability (NCI-H1975; first compound 0.000632 µM)?
A: 0.367

Q: What about the relative viability (NCI-H1975; first compound 0.002 µM) of the same compound?
A: 0.158

Q: And the relative viability (NCI-H1975; first compound 0.006325 µM)?
A: 0.133

Q: And the relative viability (NCI-H1975; first compound 0.02 µM)?
A: 0.0956

Q: And the relative viability (NCI-H1355; first compound 0.0002 µM)?
A: 0.453

Q: What about the relative viability (NCI-H1355; first compound 0.000632 µM) of the same compound?
A: 0.43

Q: What about the relative viability (NCI-H1355; first compound 0.002 µM) of the same compound?
A: 0.271

Q: And the relative viability (NCI-H1355; first compound 0.006325 µM)?
A: 0.263

Q: And the relative viability (NCI-H1355; first compound 0.02 µM)?
A: 0.202

Q: And the relative viability (NCI-H2342; first compound 0.0002 µM)?
A: 0.584

Q: And the relative viability (NCI-H2342; first compound 0.000632 µM)?
A: 0.539

Q: And the relative viability (NCI-H2342; first compound 0.002 µM)?
A: 0.543

Q: And the relative viability (NCI-H2342; first compound 0.006325 µM)?
A: 0.466

Q: And the relative viability (NCI-H2342; first compound 0.02 µM)?
A: 0.297

Q: What about the relative viability (BEN; first compound 0.0002 µM) of the same compound?
A: 0.499

Q: And the relative viability (BEN; first compound 0.000632 µM)?
A: 0.503

Q: What about the relative viability (BEN; first compound 0.002 µM) of the same compound?
A: 0.473

Q: What about the relative viability (BEN; first compound 0.006325 µM) of the same compound?
A: 0.418

Q: What about the relative viability (BEN; first compound 0.02 µM) of the same compound?
A: 0.426

Q: What about the relative viability (NCI-H1793; first compound 0.0002 µM) of the same compound?
A: 0.372

Q: What about the relative viability (NCI-H1793; first compound 0.000632 µM) of the same compound?
A: 0.285

Q: And the relative viability (NCI-H1793; first compound 0.002 µM)?
A: 0.197

Q: What about the relative viability (NCI-H1793; first compound 0.006325 µM) of the same compound?
A: 0.195

Q: What about the relative viability (NCI-H1793; first compound 0.02 µM) of the same compound?
A: 0.136

Q: And the relative viability (NCI-H460; first compound 0.0002 µM)?
A: 0.358

Q: And the relative viability (NCI-H460; first compound 0.000632 µM)?
A: 0.368

Q: What about the relative viability (NCI-H460; first compound 0.002 µM) of the same compound?
A: 0.0923

Q: What about the relative viability (NCI-H460; first compound 0.006325 µM) of the same compound?
A: 0.0604

Q: What about the relative viability (NCI-H460; first compound 0.02 µM) of the same compound?
A: 0.0207

Q: And the relative viability (NCI-H838; first compound 0.0002 µM)?
A: 0.236

Q: What about the relative viability (NCI-H838; first compound 0.000632 µM) of the same compound?
A: 0.27

Q: What about the relative viability (NCI-H838; first compound 0.002 µM) of the same compound?
A: 0.258

Q: What about the relative viability (NCI-H838; first compound 0.006325 µM) of the same compound?
A: 0.28

Q: What about the relative viability (NCI-H838; first compound 0.02 µM) of the same compound?
A: 0.193

Q: And the relative viability (HCC-366; first compound 0.0002 µM)?
A: 0.097

Q: What about the relative viability (HCC-366; first compound 0.000632 µM) of the same compound?
A: 0.0628

Q: What about the relative viability (HCC-366; first compound 0.002 µM) of the same compound?
A: 0.0488

Q: And the relative viability (HCC-366; first compound 0.006325 µM)?
A: 0.0475

Q: What about the relative viability (HCC-366; first compound 0.02 µM) of the same compound?
A: 0.0231

Q: And the relative viability (NCI-H441; first compound 0.0002 µM)?
A: 0.634

Q: What about the relative viability (NCI-H441; first compound 0.000632 µM) of the same compound?
A: 0.489

Q: What about the relative viability (NCI-H441; first compound 0.002 µM) of the same compound?
A: 0.293

Q: What about the relative viability (NCI-H441; first compound 0.006325 µM) of the same compound?
A: 0.306

Q: What about the relative viability (NCI-H441; first compound 0.02 µM) of the same compound?
A: 0.248

Q: What about the relative viability (NCI-H2023; first compound 0.0002 µM) of the same compound?
A: 0.317

Q: And the relative viability (NCI-H2023; first compound 0.000632 µM)?
A: 0.288

Q: What about the relative viability (NCI-H2023; first compound 0.002 µM) of the same compound?
A: 0.11

Q: What about the relative viability (NCI-H2023; first compound 0.006325 µM) of the same compound?
A: 0.158

Q: What about the relative viability (NCI-H2023; first compound 0.02 µM) of the same compound?
A: 0.0697
